Laboratory results: patent publication US7973159B2, “Non-basic melanin concentrating hormone receptor-1 antagonists” (Bristol-Myers Squibb Company, priority 2007, dated 2011)

Biological target: T1, mutated (E4Q, A5T) hMCHR1 receptor (Homo sapiens, UniProt Q99705, A5T/E4Q)
T1 construct: expressed in transfected cells
Experiment: Radioligand binding assay for assessment of MCHR1 activity
Conditions: membranes from stably transfected HEK-293 cells; competition with [Phe13,[125I]Tyr19]-MCH, 90 min
Description: Radioligand Binding Assay for Assessment of MCHR1 Activity
Membranes from stably transfected HEK-293 cells expressing a mutated (E4Q, A5T) hMCHR1 receptor were prepared by dounce homogenization and differential centrifugation. Binding experiments were carried out with 0.5-1.0 ug of membrane protein incubated in a total of 0.2 ml in 25 mM HEPES (pH 7.4) with 10 mM MgCl2, 2 mM EGTA, and 0.1% BSA (Binding Buffer) for 90 min. For competition binding assays, reactions were carried out in the presence of with 0.06-0.1 nM [Phe^13, [^125I]Tyr^19]-MCH and increasing concentrations of unlabeled test molecules. Reactions were terminated by rapid vacuum filtration over 96 well-GFC UNIFILTER® plates pre-coated with 0.075 ml binding buffer containing 1% BSA, and washed 3 times with 0.4 ml of Phospho-buffered Saline (pH 7.4) containing 0.01% TX-100. Filters were dried, 0.05 ml microscint 20 was added to each well and radioactivity was subsequently quantified by scintillation counting on a TOPCOUNT® microplate scintillation counter (Packard). Inhibitory constants were determined by nonlinear least squares analysis using a four parameter logistic equation.

T1 sequence (Q99705 whole entry E4Q/A5T): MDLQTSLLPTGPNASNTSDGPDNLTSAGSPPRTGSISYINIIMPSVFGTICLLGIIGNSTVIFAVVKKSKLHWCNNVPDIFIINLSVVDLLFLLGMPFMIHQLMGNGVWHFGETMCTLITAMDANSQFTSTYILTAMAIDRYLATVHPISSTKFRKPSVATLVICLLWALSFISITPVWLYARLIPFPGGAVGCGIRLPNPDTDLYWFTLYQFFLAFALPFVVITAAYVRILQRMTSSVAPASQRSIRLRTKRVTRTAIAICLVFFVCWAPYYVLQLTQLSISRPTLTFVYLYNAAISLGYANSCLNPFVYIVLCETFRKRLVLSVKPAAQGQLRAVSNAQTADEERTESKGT

| Structure (SMILES) | Ki |
| --- | --- |
| COc1cc(-n2nnc3cc(-c4ccc(Cl)cc4)sc3c2=O)ccc1OCC(C)O (stereo not drawn) [Example 3, 6-(4-Chlorophenyl)-3-(4-(2-hydroxypropoxy)-3-methoxyphenyl)thieno[3,2-d][1,2,3]triazin-4(3H)-one] | 7 nM |
| COc1cc(-n2nnc3cc(-c4ccc(Cl)cc4)sc3c2=O)ccc1OCC(O)C1CC1 (stereo not drawn) [Example 5, 6-(4-Chlorophenyl)-3-(4-(2-cyclopropyl-2-hydroxyethoxy)-3-methoxyphenyl)thieno[3,2-d][1,2,3]triazin-4(3H)-one] | 10 nM |
| COc1cc(-n2nnc3cc(-c4ccc(Cl)cc4)sc3c2=O)ccc1OC[C@H]1OC(C)(C)O[C@@H]1C [Example 6] | 19 nM |
| COc1cc(-n2nnc3cc(-c4ccc(Cl)cc4)sc3c2=O)ccc1OC[C@@H](O)[C@@H](C)O [Example 7, 6-(4-Chlorophenyl)-3-(4-((2R,3R)-2,3-dihydroxybutoxy)-3-methoxyphenyl)thieno[3,2-d][1,2,3]triazin-4(3H)-one] | 5 nM |
| COc1cc(-n2nnc3cc(-c4ccc(Cl)cc4)sc3c2=O)ccc1OCC(O)C(F)(F)F (stereo not drawn) [Example 8, 6-(4-Chlorophenyl)-3-(3-methoxy-4-(3,3,3-trifluoro-2-hydroxypropoxy)phenyl)thieno[3,2-d][1,2,3]triazin-4(3H)-one] | 8 nM |

Continued, values first:

| Ki | Structure (SMILES) |
| --- | --- |
| 3 nM | COc1cc(-n2nnc3cc(-c4ccc(Cl)cc4)sc3c2=O)ccc1OCC(C)(C)O [Example 1, 6-(4-Chlorophenyl)-3-(4-(2-hydroxy-2-methylpropoxy)-3-methoxyphenyl)-thieno[3,2-d][1,2,3]triazin-4(3H)-one] |
| 5 nM | COc1cc(-n2nnc3cc(-c4ccc(Cl)cc4)sc3c2=O)ccc1OCC(C)=O [Example 2, 6-(4-Chlorophenyl)-3-(3-methoxy-4-(2-oxopropoxy)phenyl)thieno[3,2-d][1,2,3]triazin-4(3H)-one] |
| 5 nM | COc1cc(-n2nnc3cc(-c4ccc(Cl)cc4)sc3c2=O)ccc1OCCO [Example 4, 6-(4-Chlorophenyl)-3-(4-(2-hydroxyethoxy)-3-methoxyphenyl)thieno[3,2-d][1,2,3]triazin-4(3H)-one] |
| 4 nM | COc1cc(-n2ncc3cc(-c4ccc(Cl)cc4)sc3c2=O)ccc1OCC(C)(C)O [Example 9, 2-(4-Chlorophenyl)-6-(4-(2-hydroxy-2-methylpropoxy)-3-methoxyphenyl)-thieno[2,3-d]pyridazin-7(6H)-one] |
